Assay [1] deals with T1, IDH1^R132H (Homo sapiens, UniProt O75874, R132H). The assay can be described thus: Enzyme activity inhibition assay (fluorescence-based), IDH1 R132H. It is filed as biochemical. On the procedure: The inhibitory ability of the compounds on the enzyme activities of IDH1^R132H and IDH2^R140Qwas detected and expressed as the half inhibitory concentration (IC50) value. AG-881 was used as a positive control compound. In this experiment, compounds were screened on enzymes IDH1^R132H and IDH2^R140Q using a fluorescence-based method (initial concentration: 10000 nM, 3-fold dilution, 10 concentrations, and single-well detection). • (1) Preparation of 1×assay buffer. • (2) Preparation of compound concentration gradient: the compounds to be tested were assayed at an initial concentration of 10000 nM, with 3-fold dilution and 10 concentrations, and diluted into 200-fold the final concentration in 100% DMSO solution in a 384-well plate. • (3) 250 nL of DMSO and 250 nL of diluted compounds were transferred to a reaction plate with Echo 550. • (4) IDH2^R140Q enzyme detection: 25 μL of an IDH2^R140Q enzyme solution was added, and the mixture was incubated for 60 minutes; then 25 μL of a substrate solution was added, and the mixture was incubated for 150 minutes; then 25 μL of a detection buffer was added, and the mixture was shaken for 1 minute and incubated for 60 minutes; and finally, Synergy 2, Ex544/Em590 cutoff 590 was used for reading. • (5) IDH1^R132H enzyme detection: 40 μL of a mixture solution of an IDH1^R132H enzyme at the 1.25-fold final concentration and NADPH was added, and the mixture was incubated for 60 minutes; then 10 μL of a substrate solution at the 5-fold final concentration was added, and the mixture was incubated for 90 minutes; then 25 μL of a detection buffer at the 3-fold final concentration was added, and the mixture was shaken for 1 minute. and finally, Synergy 2, Ex544/Em590 cutoff 590 was used for reading. • (8) Inhibition rate calculation, formula: % Inhibition=(RFU_sample−RFU_min)/(RFU_max−RFU_min)*100%, wherein RFU-sample represents the fluorescence intensity of a sample; RFU-min represents the average value of negative control wells and represents the fluorescence intensity with an enzyme; and RFU-max represents the average value of positive control wells and represents the fluorescence intensity without an enzyme. The curve fitting was performed using Graphpad Prism software to obtain IC50 values, and the test results were as shown in table 2.
T1 sequence (O75874 whole entry R132H): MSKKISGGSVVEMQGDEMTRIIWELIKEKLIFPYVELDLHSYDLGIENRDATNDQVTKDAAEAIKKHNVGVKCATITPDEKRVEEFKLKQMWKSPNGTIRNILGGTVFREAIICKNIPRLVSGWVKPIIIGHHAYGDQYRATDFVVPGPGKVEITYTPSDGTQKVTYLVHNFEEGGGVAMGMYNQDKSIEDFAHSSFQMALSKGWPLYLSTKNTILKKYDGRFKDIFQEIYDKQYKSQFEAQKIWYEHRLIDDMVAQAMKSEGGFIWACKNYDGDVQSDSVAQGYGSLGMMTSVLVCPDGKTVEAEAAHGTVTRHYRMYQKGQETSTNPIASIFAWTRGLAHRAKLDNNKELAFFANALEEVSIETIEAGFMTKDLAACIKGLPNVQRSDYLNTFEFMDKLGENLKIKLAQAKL

In assay [2] the target is T1, IDH1^R132H. Kind of assay: 2-HG assay in cells (U87 cell line stably transfected with IDH1-R132H). The assay is classed as cell-based. Particulars: 72 hours, read-out: 2-HG in medium (IC50, nM) (IDH1^R132H). On the procedure:
The compounds were detected for the inhibition of 2-HG production in the U87 cell line stably transfected with IDH1-R132H and the culture supernatant of TF-1 cells stably transfected with IDH2-R140Q. • (1) The cultured cells were collected by centrifugation, then suspended in a cell culture solution, counted, and seeded in a 96-well cell culture plate at 160 μL of cell suspension/well (20000 cells/well for U87-IDH1-R132H; 10000 cells/well for TF-1-IDH2-R140Q). • (2) A 96-well plate dilution was taken, and the compounds to be tested were diluted in a gradient manner in DMSO and a cell culture solution; and then 40 μL of the gradient-diluted compounds to be tested were added to the 96-well plate on which cells have been plated. […] Finally, the plate was cultured in a 37° C. incubator containing 5% CO2. • (3) After the compounds were incubated with the cells for 72 hours, the cell culture plate was taken out and centrifuged at 1500 rpm for 5 minutes, and then 100 μL of the medium supernatant was aspirated for 2-HG detection. • (4) 2-HG detection: the cell supernatant was diluted with purified water, 30 μL of the diluted sample was taken into a 1.5 ml centrifuge tube, and 200 μL of the internal standard solution was added. The mixture was mixed uniformly by vortex and centrifuged at 3200 rpm at 4° C. for 15 minutes. 100 μL of the supernatant solution was diluted with water at a 1:1 ratio and then detected by LC-MS. Analyte Peak Area was used to represent the 2-HG levels. • (5) Inhibition rate calculation, formula: % Inhibition=(1−Analyte Peak Area_sample/Analyte Peak Area_max)*100%, wherein Analyte Peak Area_sample represents the Analyte Peak Area of the sample to which the compound was added; Analyte Peak Area_max represents the average value of Analyte Peak Area of positive control wells (representing the absence of the compound). The curve fitting was performed using Graphpad Prism software to obtain IC50 values, and the test results were as shown in table 2.

A value given as a limit tells only on which side of the number the result lay.

Take `C[C@@H](Nc1nc(N[C@H](C)C(F)(F)F)nc(-c2ccc(N)c(Cl)n2)n1)C(F)(F)F` [Example 2]: the IC50 on IDH1^R132H [1] (numeric values) is 22 nM; on IDH1^R132H [2] (numeric values) it was 17 nM. Consider `COc1cc(-c2nc(N[C@H](C)C(F)(F)F)nc(N[C@H](C)C(F)(F)F)n2)nc(Cl)c1N` [Example 3, 6-(5-amino-6-chloro-4-methoxypyridin-2-yl)-N^2,N^4-bis((R)-1,1,1-trifluoroprop-2-yl)-1,3,5-triazine-2,4-diamine], for which the IC50 at IDH1^R132H [1] (class symbols) and on IDH1^R132H [2] (class symbols) was above 1000 nM each time. Turning to `C[C@@H](Nc1nc(N[C@H](C)C(F)(F)F)nc(-c2nc(Cl)c(N)cc2F)n1)C(F)(F)F` [Example 4, 6-(5-amino-6-chloro-3-fluoropyridin-2-yl)-N^2,N^4-bis((R)-1,1,1-trifluoroprop-2-yl)-1,3,5-triazine-2,4-diamine], the IC50 on IDH1^R132H [1] (class symbols) and on IDH1^R132H [2] (class symbols) was above 1000 nM throughout. Consider `C[C@@H](Nc1nc(N[C@H](C)C(F)(F)F)nc(-c2cc(Br)c(N)c(Cl)n2)n1)C(F)(F)F` [Example 6, 6-(5-amino-4-bromo-6-chloropyridin-2-yl)-N^2,N^4-bis((R)-1,1,1-trifluoropropyl-2-yl)-1,3,5-triazine-2,4-diamine], for which the IC50 is 100 to 1000 nM at IDH1^R132H [1] (class symbols) and 50 to 100 nM at IDH1^R132H [2] (class symbols).

`C=Cc1cc(-c2nc(N[C@H](C)C(F)(F)F)nc(N[C@H](C)C(F)(F)F)n2)nc(Cl)c1N` [Example 9, 6-(5-amino-6-chloro-4-vinylpyridin-2-yl)-N^2,N^4-bis((R)-1,1,1-trifluoropropyl-2-yl)-1,3,5-triazine-2,4-diamine]: the IC50 on IDH1^R132H [1] (class symbols) and on IDH1^R132H [2] (class symbols) was above 1000 nM in each case. In the case of `C[C@@H](Nc1nc(N[C@H](C)C(F)(F)F)nc(-c2cc(F)c(O)c(Cl)n2)n1)C(F)(F)F` [Example 10, 6-(4,6-bis(((R)-1,1,1-trifluoroprop-2-yl)amine)-1,3,5-triazin-2-yl)-2-chloro-4-fluoropyridin-3-ol], the IC50 was above 1000 nM at IDH1^R132H [1] (class symbols) and 100 to 1000 nM on IDH1^R132H [2] (class symbols). `C[C@@H](Nc1nc(N[C@H](C)C2CC2)nc(-c2cc(F)c(N)c(Cl)n2)n1)C1CC1` [Example 11, 6-(5-amino-6-chloro-4-fluoropyridin-2-yl)-N^2,N^4-bis((R)-1-cyclopropylethyl)-1,3,5-triazine-2,4-diamine]: the values for the IC50 at IDH1^R132H [1] (class symbols) and at IDH1^R132H [2] (class symbols) were above 1000 nM and 100 to 1000 nM, respectively. Regarding `Nc1c(F)cc(-c2nc(NC3CC(F)(F)C3)nc(NC3CC(F)(F)C3)n2)nc1Cl` [Example 12, 6-(5-amino-6-chloro-4-fluoropyridin-2-yl)-N^2,N^4-bis(3,3-difluorocyclobutyl)-1,3,5-triazine-2,4-diamine], the IC50 on IDH1^R132H [1] (class symbols) and at IDH1^R132H [2] (class symbols) was at most 50 nM throughout. Consider `C[C@@H](Nc1nc(N[C@H](C)C(F)(F)F)nc(-c2cc(F)c(N)c(C(F)(F)F)n2)n1)C(F)(F)F` [Example 13, 6-(5-amino-4-fluoro-6-(trifluoromethyl)pyridin-2-yl)-N^2,N^4-bis((R)-1,1,1-trifluoroprop-2-yl)-1,3,5-triazine-2,4-diamine], for which the values for the IC50 on IDH1^R132H [1] (class symbols) and on IDH1^R132H [2] (class symbols) were above 1000 nM and 100 to 1000 nM, respectively. As for `C[C@@H](Nc1nc(N[C@H](C)C(F)(F)F)nc(-c2cc(F)c(Cl)c(Cl)n2)n1)C(F)(F)F` [Example 17, 6-(5,6-dichloro-4-fluoropyridin-2-yl)-N^2,N^4-bis((R)-1,1,1-trifluoroprop-2-yl)-1,3,5-triazine-2,4-diamine], the IC50 on IDH1^R132H [1] (class symbols) and on IDH1^R132H [2] (class symbols) was at most 50 nM throughout. As to `CNc1c(Cl)cc(-c2nc(N[C@H](C)C(F)(F)F)nc(N[C@H](C)C(F)(F)F)n2)nc1Cl` [Example 20, 6-(4,6-dichloro-5-methylaminopyridin-2-yl)-N^2,N^4-bis((R)-1,1,1-trifluoroprop-2-yl)-1,3,5-triazine-2,4-diamine], the IC50 on IDH1^R132H [1] (class symbols) is above 1000 nM. Regarding `C[C@@H](Nc1nc(N[C@H](C)C(F)(F)F)nc(-c2cc(Cl)c(N(C)C)c(Cl)n2)n1)C(F)(F)F` [Example 21, 6-(4,6-dichloro-5-dimethylaminopyridin-2-yl)-N^2,N^4-bis((R)-1,1,1-trifluoroprop-2-yl)-1,3,5-triazine-2,4-diamine], on IDH1^R132H [1] (class symbols), the IC50 was 100 to 1000 nM. Regarding `C[C@@H](Nc1nc(N[C@H](C)C(F)(F)F)nc(-c2cc(OC(F)F)c(N)c(Cl)n2)n1)C(F)(F)F` [Example 22, 6-(5-amino-6-chloro-4-(difluoromethoxy)pyridin-2-yl)-N^2,N^4-bis((R)-1,1,1-trifluoropropyl-2-yl)-1,3,5-triazine-2,4-diamine], the IC50 at IDH1^R132H [1] (class symbols) was above 1000 nM. In the case of `C[C@@H](Nc1nc(N[C@H](C)C(F)(F)F)nc(-c2cc(C(F)(F)F)c(N)c(Cl)n2)n1)C(F)(F)F` [Example 25, 6-(6-chloro-5-amino-4-(trifluoromethyl)pyridin-2-yl)-N^2,N^4-bis((R)-1,1,1-trifluoropropyl-2-yl)-1,3,5-triazine-2,4-diamine], the IC50 on IDH1^R132H [1] (class symbols) and on IDH1^R132H [2] (class symbols) was 100 to 1000 nM in each case.

Broadly, the IC50 is the concentration that inhibits the measured activity by half.

The values above are taken from patent publication US20250051301A1, “MUTANT IDH1 AND IDH2 INHIBITOR AND APPLICATION THEREOF” (Betta Pharmaceuticals Co., Ltd, priority 2022, published 2025).
